Data from article PMC11267003, “Interdomain communication in a homodimeric ABC transporter” (The Journal of Biological Chemistry, 2024).
Numbering of substitutions follows the chain as printed. No end group written: not given here.

What was measured:
[1] = molecular target: human coreTAPL (TAPL, ABCB9) (Homo sapiens, UniProt Q9NP78, D278A); assay: biochemical
[2] = molecular target: human coreTAPL (TAPL, ABCB9) (Homo sapiens, UniProt Q9NP78); assay: biochemical
[3] = molecular target: human coreTAPL (TAPL, ABCB9) (Homo sapiens, UniProt Q9NP78, R288A); assay: biochemical
[4] = molecular target: human coreTAPL (TAPL, ABCB9) (Homo sapiens, UniProt Q9NP78, D292A); assay: biochemical
[5] = molecular target: T1, human coreTAPL R288A, C-terminal mVenus-His10 fusion (human, UniProt Q9NP78 143-766, R288A); assay: MST; 5 nM C4^Atto-655 with 5 μM GDN-purified TAPL variant in GDN-containing elution buffer, 22 °C, single concentration; conditions: both partners purified
T1 construct: human TAPL (ABCB9), coreTAPL, amino acids 143-766; Mutant of the mVenus fusion construct; TEV site between coreTAPL and mVenus; also called R288A^mV; source: Sf21 insect cells (baculovirus), purified by Ni-NTA after solubilisation in GDN or DDM; reconstituted into liposomes for transport and hydrolysis assays; not shown: mVenus, C-terminal, kept
T1 sequence (looked up): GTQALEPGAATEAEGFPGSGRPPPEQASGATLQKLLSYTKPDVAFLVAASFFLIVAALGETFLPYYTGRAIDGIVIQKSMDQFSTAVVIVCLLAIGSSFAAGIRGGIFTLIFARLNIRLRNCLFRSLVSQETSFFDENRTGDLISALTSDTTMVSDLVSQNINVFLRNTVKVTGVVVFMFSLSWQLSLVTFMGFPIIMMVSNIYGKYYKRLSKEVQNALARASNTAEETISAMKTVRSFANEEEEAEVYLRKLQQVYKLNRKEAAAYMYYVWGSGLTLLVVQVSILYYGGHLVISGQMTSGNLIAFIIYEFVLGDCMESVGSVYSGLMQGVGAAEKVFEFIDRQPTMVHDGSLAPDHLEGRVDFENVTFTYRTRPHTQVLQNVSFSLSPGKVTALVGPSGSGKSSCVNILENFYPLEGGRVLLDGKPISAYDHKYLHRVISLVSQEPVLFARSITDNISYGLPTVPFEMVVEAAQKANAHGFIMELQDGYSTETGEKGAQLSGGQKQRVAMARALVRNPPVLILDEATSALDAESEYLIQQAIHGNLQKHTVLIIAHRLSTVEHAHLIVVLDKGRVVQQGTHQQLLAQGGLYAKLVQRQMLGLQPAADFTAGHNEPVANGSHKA

[6] = molecular target: T2, human coreTAPL D278A, C-terminal mVenus-His10 fusion (human, UniProt Q9NP78 143-766, D278A); assay: as above; conditions: both partners purified
T2 construct: human TAPL (ABCB9), coreTAPL, amino acids 143-766; Mutant of the mVenus fusion construct; TEV site between coreTAPL and mVenus; also called D278A^mV; source: Sf21 insect cells (baculovirus), purified by Ni-NTA after solubilisation in GDN or DDM; reconstituted into liposomes for transport and hydrolysis assays; not shown: mVenus, C-terminal, kept
T2 sequence (looked up): T1 sequence (looked up) with D136A, A146R

[7] = molecular target: T3, human coreTAPL D292A, C-terminal mVenus-His10 fusion (human, UniProt Q9NP78 143-766, D292A); assay: as above; conditions: both partners purified
T3 construct: human TAPL (ABCB9), coreTAPL, amino acids 143-766; Mutant of the mVenus fusion construct; TEV site between coreTAPL and mVenus; also called D292A^mV; source: Sf21 insect cells (baculovirus), purified by Ni-NTA after solubilisation in GDN or DDM; reconstituted into liposomes for transport and hydrolysis assays; not shown: mVenus, C-terminal, kept
T3 sequence (looked up): T1 sequence (looked up) with A146R, D150A

[8] = molecular target: T4, human coreTAPL wildtype (transporter associated with antigen processing-like, ABCB9), C-terminal mVenus-His10 … (human, UniProt Q9NP78 143-766); assay: as above; conditions: both partners purified
T4 construct: human TAPL (ABCB9), coreTAPL without the N-terminal TMD0, amino acids 143-766; A tobacco etch virus cleavage site lies between coreTAPL and mVenus; no cleavage is reported for the mVenus constructs, so the His10 behind mVenus was probably still there; also called wt; wt TAPL; source: Sf21 insect cells (baculovirus), purified by Ni-NTA after solubilisation in GDN or DDM; reconstituted into …
T4 sequence (looked up): T1 sequence (looked up) with A146R

Chain of human coreTAPL (TAPL, ABCB9) (Homo sapiens, UniProt Q9NP78) (Q9NP78 143-766): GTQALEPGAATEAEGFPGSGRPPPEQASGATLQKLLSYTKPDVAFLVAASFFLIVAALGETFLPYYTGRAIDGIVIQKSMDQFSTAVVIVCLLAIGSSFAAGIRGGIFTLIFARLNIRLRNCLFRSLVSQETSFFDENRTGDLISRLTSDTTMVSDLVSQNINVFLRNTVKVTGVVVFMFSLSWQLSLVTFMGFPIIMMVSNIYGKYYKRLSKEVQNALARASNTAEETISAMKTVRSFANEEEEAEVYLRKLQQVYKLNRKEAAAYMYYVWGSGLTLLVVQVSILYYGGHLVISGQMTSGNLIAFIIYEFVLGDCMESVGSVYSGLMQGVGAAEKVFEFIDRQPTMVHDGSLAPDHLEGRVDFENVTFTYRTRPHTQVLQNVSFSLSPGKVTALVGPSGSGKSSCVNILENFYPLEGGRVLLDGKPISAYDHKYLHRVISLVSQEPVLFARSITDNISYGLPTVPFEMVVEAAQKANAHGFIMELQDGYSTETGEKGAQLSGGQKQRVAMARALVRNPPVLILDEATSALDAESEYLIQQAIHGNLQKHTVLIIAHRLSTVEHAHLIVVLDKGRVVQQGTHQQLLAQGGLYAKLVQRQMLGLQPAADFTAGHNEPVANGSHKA
Chain of human coreTAPL (TAPL, ABCB9) (Homo sapiens, UniProt Q9NP78, D278A) (Q9NP78 143-766 D278A): as the sequence (Q9NP78 143-766) above, with D136A counted along it
Chain of human coreTAPL (TAPL, ABCB9) (Homo sapiens, UniProt Q9NP78, D292A) (Q9NP78 143-766 D292A): as the sequence (Q9NP78 143-766) above, with D150A counted along it

Molecule `Nc1ncnc2c1ncn2[C@@H]1O[C@H](COP(=O)(O)OP(=O)(O)OP(=O)(O)O)[C@@H](O)[C@H]1O` [ATP] has an IC50 [1] of 0.9 ± 0.2 µM, an IC50 [2] of 1.9 ± 1.3 µM and an IC50 [3] of 5.6 ± 1.7 µM. The IC50 [4] was 1.3 ± 0.8 µM.

B1: peptide C4^Atto-655 (RRYC^Atto-655KSTEL) (peptide)
peptide: RRYC(Atto‑655)KSTEL
notes: synthetic 9-mer peptide C4; source: synthetic peptide (Fmoc solid-phase synthesis), labelled, purified by reversed-phase HPLC
B1: binds [5]; binds [6]; binds [7]. B1: binds [8].
